The term IC50 denotes the midpoint of a concentration-inhibition curve. Read a high IC50 as lower potency.

Where only a bound is given, the exact number is not on record here.

This experiment deals with T1, IGF-1R (Homo sapiens, UniProt P08069).
T1 construct: expressed in transfected cells; host or cells: Hek293 (Hek293-IGF1R)
T1 sequence (P08069 31-1367): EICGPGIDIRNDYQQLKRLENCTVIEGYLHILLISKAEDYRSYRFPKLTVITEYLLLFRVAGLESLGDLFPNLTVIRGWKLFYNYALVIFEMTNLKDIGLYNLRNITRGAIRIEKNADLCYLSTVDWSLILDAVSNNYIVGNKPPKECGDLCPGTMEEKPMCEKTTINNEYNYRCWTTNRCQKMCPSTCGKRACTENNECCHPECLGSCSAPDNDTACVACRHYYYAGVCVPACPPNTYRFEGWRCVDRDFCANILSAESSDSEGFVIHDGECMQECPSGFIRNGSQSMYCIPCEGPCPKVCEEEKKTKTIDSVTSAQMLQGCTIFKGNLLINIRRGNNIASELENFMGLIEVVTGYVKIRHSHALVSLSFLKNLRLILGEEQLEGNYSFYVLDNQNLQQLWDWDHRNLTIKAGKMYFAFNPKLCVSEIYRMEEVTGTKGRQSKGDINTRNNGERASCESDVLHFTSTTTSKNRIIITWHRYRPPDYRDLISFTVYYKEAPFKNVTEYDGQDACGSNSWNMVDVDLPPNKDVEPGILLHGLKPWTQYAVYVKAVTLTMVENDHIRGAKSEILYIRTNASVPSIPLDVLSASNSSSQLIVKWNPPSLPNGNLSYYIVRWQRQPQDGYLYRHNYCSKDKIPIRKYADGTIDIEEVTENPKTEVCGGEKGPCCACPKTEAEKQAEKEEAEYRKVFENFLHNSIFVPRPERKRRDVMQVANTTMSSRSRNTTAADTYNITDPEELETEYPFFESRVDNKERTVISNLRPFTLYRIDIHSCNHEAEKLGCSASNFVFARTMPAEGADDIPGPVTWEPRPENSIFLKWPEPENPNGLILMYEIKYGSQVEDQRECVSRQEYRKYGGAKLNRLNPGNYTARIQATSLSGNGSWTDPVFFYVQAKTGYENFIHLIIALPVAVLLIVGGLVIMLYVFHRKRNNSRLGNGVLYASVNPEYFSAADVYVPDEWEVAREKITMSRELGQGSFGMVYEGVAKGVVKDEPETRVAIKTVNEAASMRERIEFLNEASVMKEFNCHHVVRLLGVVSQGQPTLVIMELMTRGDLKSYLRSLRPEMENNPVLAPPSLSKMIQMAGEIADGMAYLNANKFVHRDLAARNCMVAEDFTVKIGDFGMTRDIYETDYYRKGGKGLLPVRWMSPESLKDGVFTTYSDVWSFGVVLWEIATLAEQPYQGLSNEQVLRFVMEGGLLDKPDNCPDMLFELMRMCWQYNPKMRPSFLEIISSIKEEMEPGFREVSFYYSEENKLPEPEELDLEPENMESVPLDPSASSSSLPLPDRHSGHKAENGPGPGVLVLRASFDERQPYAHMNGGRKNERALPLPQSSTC
As to the kind of experiment: Cellular IGF-1R assay: capture ELISA (MSD) of receptor phosphorylation in Hek293 cells. In kind it is cell-based. Conditions: Hek293-IGF1R cells, 1 h pre-incubation, 10 min IGF stimulation, pIGF1R capture ELISA. Here is the method: (§1) In this assay the activity of the compounds of the invention against Insulin-like growth factor I (IGF-I) induced autophosphorylation of the IGF-IR was determined. The assay was conducted as follows: Compound-mediated inhibition of IGF1R and INSR phosphorylation in Hek293 cells transduced with the corresponding receptors was assessed in a capture ELISA format using the MSD (Meso Scale Discovery) platform. Briefly, 30,000 cells washed and diluted in starvation medium (DMEM high glucose supplemented with 0.1% BSA) were seeded in 90 μL per well into 96-well plates pre-coated with poly-D-lysine (0.1 mg/mL in PBS/O). After 24 h incubation at 37° C. and 5% CO2, dose-response effects were determined with 3-fold serial compound dilutions, starting at 10 μM. The final vehicle concentration is 0.1% DMSO in all wells. Following pre-incubation with compounds for 1 h, receptor phosphorylation was triggered by a 10 min exposure to 1.0 ng/μL IGF for Hek293-IGF1R cells, and 5.0 ng/μL insulin for Hek293-InsR cells. Cell lysis was achieved by addition of 80 μL MSD lysis buffer per aspirated well, incubation on ice for 20 min, and a freeze-thaw cycle. Target phosphorylation was then assessed by transferring volumes corresponding to approx. 6 μg Hek293-IGF1R or 0.6 μg Hek293-InsR lysates to MSD assay plates pre-coated with total-IGF1R or total-InsR Abs, respectively. […] Immune complexes were detected by a SULFO-Tag™-coupled anti-rabbit IgG antibody in the presence of 150 μL MSD read-buffer. Light emission at 620 nm triggered by application of electric current was recorded on a MSD Sectorlmager 6000. Acquired raw data (mean Ru-ECL units) were processed in an Excel analysis template. The plate blank (MSD lysis buffer) was subtracted from all data points. The effect of a particular test compound concentration on receptor phosphorylation was expressed relative to the window defined by ligand-stimulated vs unstimulated control cells (set as 100%). IC50 values [nM] were determined using 4-parametric curve-fitting (XLfit software, V4.3.2).
as §1, with “Compound-mediated” for “In this assay the activity of the compounds of the invention against Insulin-like growth factor I (IGF-I) induced autophosphorylation of the IGF-IR was determined. The assay was conducted as follows: Compound-mediated”, “cells trans-duced” for “cells transduced”, “receptors were” for “receptors was”, “concentration was” for “concentration is”, “for Hek293-IGF1 R” for “for Hek293-IGF1R”, “with total-IGF1 R” for “with total-IGF1R”
(In general: In an ELISA, binding on a coated surface is turned into a signal by an enzyme label.)
For `Nc1ncnc2c1c(-c1cccc(OCC34CCC(CC3)O4)c1)cn2[C@H]1CC[C@@H](NC(=O)C2CC2)CC1` [Example 146, N-((1S,4S)-4-(5-(3-(7-oxabicyclo[2.2.1]heptan-1-ylmethoxy)phenyl)-4-amino-7H-pyrrolo[2,3-d]pyrimidin-7-yl)cyclohexyl)cyclopropanecarboxamide], the IC50 is 0.174 µM. This counts as sub-micromolar. With `NC[C@]1(O)C[C@H](n2cc(-c3cccc(OCC45CCC(CC4)O5)c3)c3c(N)ncnc32)C1` [Example 201] the figure was 0.478 µM. Then `NC(=O)[C@@H]1[C@@H](O)CCN1C[C@H]1C[C@@H](n2cc(-c3cccc(OCC4CCCCO4)c3)c3c(N)ncnc32)C1` (stereo partly drawn) [Example 35, (2S,3S)-1-(cis-3-{4-amino-5-[3-(tetrahydro-pyran-2-ylmethoxy)-phenyl]-pyrrolo[2,3-d]pyrimidin-7-yl}-cyclobutylmethyl)-3-hydroxy-pyrrolidine-2-carboxylic acid amide], with 0.041 to 0.103 µM; and `Nc1ncnc2c1c(-c1cccc(OCC34CCC(CC3)O4)c1)cn2C1CCC(O)(CN2CCS(=O)(=O)CC2)CC1` (stereo not drawn) [Example 149, 4-{4-Amino-5-[3-(7-oxa-bicyclo[2.2.1]hept-1-ylmethoxy)-phenyl]-pyrrolo[2,3-d]pyrimidin-7-yl}-1-(1,1-dioxo-1λ6-thiomorpholin-4-ylmethyl)-cyclohexanol], with 0.464 µM; and `CC1(C)CCC(COc2cccc(-c3cn(C4CC(CN5CC(F)C5)C4)c4ncnc(N)c34)c2)O1` (stereo not drawn) [Example 47, 5-[trans-3-(5,5-dimethyl-tetrahydro-furan-2-ylmethoxy)-phenyl]-7-[3-(3-fluoro-azetidin-1-ylmethyl)-cyclobutyl]-7H-pyrrolo[2,3-d]pyrimidin-4-ylamine], with 0.034 µM. With `NC(=O)[C@@H]1CCCN1[C@H]1C[C@@H](n2cc(-c3cccc(OCC45CCC(CC4)O5)c3)c3c(N)ncnc32)C1` [Example 189, (S)-1-(cis-3-{4-Amino-5-[3-(7-oxa-bicyclo[2.2.1]hept-1-ylmethoxy)-phenyl]-pyrrolo[2,3-d]pyrimidin-7-yl}-cyclobutyl)-pyrrolidine-2-carboxylic acid amide] the figure was 0.132 µM; with `CC(=O)N[C@H]1CC[C@@H](n2cc(-c3cccc(OCC45CCC(CC4)O5)c3)c3c(N)ncnc32)CC1` [Example 133, N-((1S,4S)-4-(5-(3-(7-oxabicyclo[2.2.1]heptan-1-ylmethoxy)phenyl)-4-amino-7H-pyrrolo[2,3-d]pyrimidin-7-yl)cyclohexyl)acetamide], 0.238 µM. For the molecule `Nc1ncnc2c1c(-c1cccc(OCC34CCC(CC3)O4)c1)cn2C1CCC(CN2CCC(O)C2)CC1` [Example 126, (S)-1-(((1S,4S)-4-(5-(3-(7-oxabicyclo[2.2.1]heptan-1-ylmethoxy)phenyl)-4-amino-7H-pyrrolo[2,3-d]pyrimidin-7-yl)cyclohexyl)methyl)pyrrolidin-3-ol], 0.05 µM corresponded to half-maximal inhibition (IC50).

In turn, `CC(=O)NC[C@H]1C[C@@H](n2cc(-c3cccc(OCC45CCC(CC4)O5)c3)c3c(N)ncnc32)C1` [Example 178] gave an IC50 of 0.047 to 0.112 µM.

As for `CC1(C)CCC(COc2cccc(-c3cn(C4CC(CN5CCC(F)C5)C4)c4ncnc(N)c34)c2)O1` (single isomer, unassigned) [Example 39], the IC50 is 0.224 µM. That is a sub-micromolar value. As to `CC1(C)CCC(COc2cccc(-c3cn([C@H]4C[C@@H](CN5CCC[C@H]5C(N)=O)C4)c4ncnc(N)c34)c2)O1` (stereo partly drawn) [Example 50, (S)-1-(cis-3-{4-amino-5-[3-(5,5-dimethyl-tetrahydro-furan-2-ylmethoxy)-phenyl]-pyrrolo[2,3-d]pyrimidin-7-yl}-cyclobutylmethyl)-pyrrolidine-2-carboxylic acid amide], the IC50 worked out at 0.008 µM. In the case of `CC1(C)CCC(COc2cccc(-c3cn([C@H]4C[C@@H](CN5CCC(F)(F)CC5)C4)c4ncnc(N)c34)c2)O1` (relative stereo) [Example 53, 7-[cis-3-(4,4-difluoro-piperidin-1-ylmethyl)-cyclobutyl]-5-[3-(5,5-dimethyl-tetrahydro-furan-2-ylmethoxy)-phenyl]-7H-pyrrolo[2,3-d]pyrimidin-4-ylamine], the IC50 is 0.032 to 0.037 µM. With `Nc1ncnc2c1c(-c1cccc(OCC34CCC(CC3)O4)c1)cn2[C@@H]1CCN(C2CS(=O)(=O)C2)C1` [Example 225, 7-[(R)-1-(1,1-dioxo-thietan-3-yl)-pyrrolidin-3-yl]-5-[3-(7-oxa-bicyclo[2.2.1]hept-1-ylmethoxy)-phenyl]-7H-pyrrolo[2,3-d]pyrimidin-4-ylamine], inhibition was half-maximal at 0.319 µM (IC50). In turn, “7-[cis-3-(N-methylcarboxy-amino-methyl)-cyclobutyl]-5-3-(7-oxa-bicyclo[2.2.1]hept-1-ylmethoxy)-phenyl]-7H-pyrrolo[2,3-d]pyrimidin-4-ylamine [Example 177]” gave an IC50 of 0.138 µM. Then `NC[C@H]1C[C@@H](n2cc(-c3cccc(OCC45CCC(CC4)O5)c3)c3c(N)ncnc32)C1` (relative stereo) [Example 160, 7-[cis-3-aminomethyl-cyclobutyl]-5-[3-(7-oxa-bicyclo[2.2.1]hept-1-ylmethoxy)-phenyl]-7H-pyrrolo[2,3-d]pyrimidin-4-ylamine], with 0.024 µM; and `CC1(C)CCC(COc2cccc(-c3cn([C@H]4C[C@@H](CN5CCC(F)CC5)C4)c4ncnc(N)c34)c2)O1` (single isomer, unassigned) [Example 59, 7-[cis-3-(4-fluoro-piperidin-1-ylmethyl)-cyclobutyl]-5-[3-(5,5-dimethyl-tetrahydro-furan-2-ylmethoxy)-phenyl]-7H-pyrrolo[2,3-d]pyrimidin-4-ylamine], with 0.018 µM; and “7-[cis-3-(4-methyltetrazoyl-1-ylmethyl)-cyclobutyl]-5-3-(7-oxa-bicyclo[2.2.1]hept-1-ylmethoxy)-phenyl]-7H-pyrrolo[2,3-d]pyrimidin-4-ylamine [Example 179]”, with 0.345 µM.

In turn, `CCNC(=O)NCC1CC(n2cc(-c3cccc(OCC45CCC(CC4)O5)c3)c3c(N)ncnc32)C1` (stereo not drawn) [Example 163, 1-(3-{4-amino-5-[3-(7-oxa-bicyclo[2.2.1]hept-1-ylmethoxy)-phenyl]-pyrrolo[2,3-d]pyrimidin-7-yl}-cyclobutylmethyl)-3-ethyl-urea] gave a half-maximal inhibitory concentration (IC50) of 0.153 µM.

Turning to `CC1(C)CCC(COc2cccc(-c3cn([C@H]4C[C@@H](CN5CCS(=O)(=O)CC5)C4)c4ncnc(N)c34)c2)O1` (single isomer, unassigned) [Example 66], the IC50 was below 0.004 µM. In turn, `CN1CCN([C@H]2CC[C@@H](n3cc(-c4cccc(OC[C@@H]5CCC(C)(C)O5)c4)c4c(N)ncnc43)CC2)CC1` [Example 119, 5-(3-(((S)-5,5-dimethyltetrahydrofuran-2-yl)methoxy)phenyl)-7-((1S,4S)-4-(4-methylpiperazin-1-yl)cyclohexyl)-7H-pyrrolo[2,3-d]pyrimidin-4-amine] showed an IC50 of 0.036 µM. With `CC1(C)CCC(COc2cccc(-c3cn(C4CC(CN5CCS(=O)(=O)CC5)C4)c4ncnc(N)c34)c2)O1` (stereo not drawn) [Example 14, 5-[3-(5,5-dimethyl-tetrahydro-furan-2-ylmethoxy)phenyl]-7-[3-(1,1-dioxothiomorpholin-4-ylmethyl)-cyclobutyl]-7H-pyrrolo[2,3-d]pyrimidin-4-ylamine] the figure was 0.017 µM.
